Laboratory results reported in patent US20080194653A1, “Therapeutic Agent For Solid Tumor” (KYOWA HAKKO KOGYO CO., LTD., priority 2005, published 2008).
Counter-ions that a name gives are not always drawn.

Key:
[1] = target: T1, recombinant human Eg5 motor domain protein (Homo sapiens, UniProt P52732); test: Eg5 enzyme inhibition test (ATPase activity); assay type: biochemical
T1 construct: A plasmid expressing the motor domain of human Eg5 was constructed; made in house; host or cells: Escherichia coli BL21 (DE3)
T1 sequence (P52732 18-359 limits assumed): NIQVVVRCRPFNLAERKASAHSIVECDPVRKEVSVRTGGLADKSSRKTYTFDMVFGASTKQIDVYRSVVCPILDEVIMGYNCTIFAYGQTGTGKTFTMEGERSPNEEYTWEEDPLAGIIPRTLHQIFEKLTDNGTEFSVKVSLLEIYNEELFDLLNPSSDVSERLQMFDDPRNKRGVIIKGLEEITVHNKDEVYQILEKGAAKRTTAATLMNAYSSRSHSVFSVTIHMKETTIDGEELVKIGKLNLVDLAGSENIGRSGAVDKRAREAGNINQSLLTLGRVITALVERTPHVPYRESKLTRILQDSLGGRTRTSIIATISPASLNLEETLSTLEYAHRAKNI
Protocol: A recombinant human Eg5 motor domain protein was prepared by referring to the literature [Biochemistry, Vol. 35, p. […] A plasmid expressing the motor domain of human Eg5 was constructed, and transformed into Escherichia coli BL21 (DE3). The transformant was cultured at 25° C., and when the OD600 reached 0.74, isopropyl-β-D-thiogalactoside was added at a final concentration of 0.5 mmol/L. The transformant was further cultured for 4 hours, and then the culture medium was centrifuged to collect the cells. The cells were suspended in a buffer and ultrasonicated, and then the sonicated solution was centrifuged to recover the supernatant. The supernatant was purified by cation exchange column chromatography to obtain a partially purified sample. Furthermore, the partially purified sample was purified by gel filtration column chromatography to obtain a finally purified sample.
Measurement of the ATPase activity of Eg5 was carried out by referring to the literatures [EMBO Journal, Vol. 13, p. […] Solution A was dispensed into each well of a 96-well plate as 45 μL portions. Solution B was used to serially dilute a test compound. The diluted test compound solutions in a volume of 30 μL were mixed with Solution A added beforehand in each well of the 96-well plate to start the enzymatic reaction. The enzymatic reaction was performed at 30° C. for 30 minutes. […] The relative activity was calculated to calculate IC50 value.

[2] = tested on: human lung cancer A549 cells; test: Cell growth inhibition test against lung cancer cells (XTT); assay type: cell-based; conditions: read-out: GI50 value (concentration of 50% growth inhibition), 72 hours
Protocol: (§1) As cancer cell lines, human lung cancer A549 cells (ATCC No. CCL-185), human ovarian cancer SK-OV-3 cells (ATCC No. HTB-77), and human colon cancer HCT 116 cells (ATCC No. CCL-247) were used. For the culture of A549 cells, Nutrient Mixture F-12K medium (Invitrogen, catalog No. 21127-022) containing 10% fetal bovine serum (Invitrogen, catalog No. 10099-141), 100 units/mL penicillin (Invitrogen, catalog No. 15140-122), and 100 μg/mL streptomycin (Invitrogen, catalog No. 15140-122) was used. For the culture of SK-OV-3 cells and HCT 116 cells, McCoy's 5A medium (Invitrogen, catalog No. 16600-082) containing 10% fetal bovine serum (Invitrogen, catalog No. 10099-141), 100 units/mL penicillin (Invitrogen, catalog No. 15140-122), and 100 μg/mL streptomycin (Invitrogen, catalog No. 15140-122) was used. The cells were cultured at 37° C. in a 5% carbon dioxide atmosphere.
(§2) A549 cells (1000 cells/well), SK-OV-3 cells (2000 cells/well), or HCT 116 cells (1000 cells/well) were seeded in each well of 96-well plates (Nunc, catalog No. 167008), and cultured overnight. Test compounds diluted stepwise were added, and the cells were further cultured for 72 hours (final volume: 100 μL/well). Fifty μL XTT labeling mixture of Cell Proliferation Kit II (XTT) (Roche Diagnostics, catalog No. 1465015) was added to each well, and the plates were incubated at 37° C. After 1 to 3 hours, absorbance at 490 nm (reference wavelength: 655 nm) was measured with a plate reader (Molecular Device, SpectraMax 340PC^384). Growth ratios of the cells in the wells treated with the test compounds were calculated based on the growth ratio of the cells in the control well treated with solvent (dimethyl sulfoxide (DMSO)) for 72 hours, which was defined as 100%.

[3] = tested on: human ovarian cancer SK-OV-3 cells; test: Cell growth inhibition test against ovarian cancer cells (XTT); assay type: cell-based; conditions: read-out: GI50 value (concentration of 50% growth inhibition), 72 hours
Protocol: as §1, §2

[4] = tested on: human colon cancer HCT 116 cells; test: Cell growth inhibition test against colon cancer cells (XTT); assay type: cell-based; conditions: read-out: GI50 value (concentration of 50% growth inhibition), 72 hours
Protocol: as §1, §2

Row | melting point [°C] | SMILES | also measured
1 | 175 to 182 | CC(C)(C)C(=O)NC1=NN(C(=O)C(C)(C)C)C(CN)(c2ccccc2)S1 (centres unmarked) (as salt: hydrochloride) [Compound j, N-[5-Aminomethyl-4-(2,2-dimethylpropionyl)-5-phenyl-4,5-dihydro-1,3,4-thiadiazol-2-yl]-2,2-dimethylpropanamide] | 
2 |  | CCNCCS(=O)(=O)NCCC1(c2ccccc2)SC(NC(=O)C(C)(C)C)=NN1C(=O)C(C)(C)C (racemic) [Compound 14, N-{4-(2,2-Dimethylpropionyl)-5-[2-(2-ethylaminoethanesulfonylamino)ethyl]-5-phenyl-4,5-dihydro-1,3,4-thiadiazol-2-yl}-2,2-dimethylpropanamide] | Inhibition of the ATPase activity of Eg5 (in words) [1]: inhibited the ATPase activity of Eg5 in a concentration-dependent manner
3 | 107 to 110 | CC(C)(C)C(=O)N1N=C(N2CCCC2=O)SC1(CCNS(C)(=O)=O)c1ccccc1 (single isomer, unassigned; (-)) [Compound c, (−)-N-{2-[3-(2,2-Dimethylpropionyl)-5-(2-oxopyrrolidin-1-yl)-2-phenyl-2,3-dihydro-1,3,4-thiadiazol-2-yl]ethyl}methanesulfonamide] | 
4 | 187 to 190 | CC(=O)N1N=C(NC(=O)C(C)(C)C)SC1(CCNS(C)(=O)=O)c1ccccc1 (single isomer, unassigned; (-)) [Compound f, (−)-N-[4-Acetyl-5-(2-methanesulfonylaminoethyl)-5-phenyl-4,5-dihydro-1,3,4-thiadiazol-2-yl]-2,2-dimethylpropanamide] | 
5 | 137 to 140 | CC(=O)N1N=C(N2CCCC2=O)SC1(CCNS(C)(=O)=O)c1ccccc1 (centres unmarked) [Compound g, N-{2-[3-Acetyl-5-(2-oxopyrrolidin-1-yl)-2-phenyl-2,3-dihydro-1,3,4-thiadiazol-2-yl]ethyl}methanesulfonamide] | 
6 |  | CC(C)(C)C(=O)NC1=NN(C(=O)C(C)(C)C)C(CN)(c2ccccc2)S1 (centres unmarked) [Compound j, N-[5-Aminomethyl-4-(2,2-dimethylpropionyl)-5-phenyl-4,5-dihydro-1,3,4-thiadiazol-2-yl]-2,2-dimethylpropanamide] | GI50 [2]: < 10 µM; GI50 [3]: < 10 µM; GI50 [4]: < 0.1 µM
